According to patent publication US6479461B1, “Use of alkylmonoglucosides as molecular vectors” (Ulice, priority 1997, dated 2002):
Read-outs that look alike come from different tables or passages of the source.

How the values were obtained:
[1] = system: skin model: epidermis reconstituted from keratinocytes on a matrix of collagen; experiment: MTT dosage on skin model (cytotoxicity)
Excerpt: We have quantified and compared in vitro, the cytotoxicity of lactic acid and of lactate of α-butylglucoside on a skin model. This skin model is made up of a matrix of collagen on which rests an epidermis reconstituted from keratinocytes and presenting a similar architecture to that of the human epidermis. The transformation of tetrazolium salt (MTT) in blue crystals of Formozan is proportional to the activity of the dehydrogenase succinate, (a mitochondrial enzyme). As a consequence, the more the epidermis contains living cells, the larger the transformation by the dehydrogenase succinate of the MTT in blue Formozan crystals will be. The quantity of Formozan is measured in the spectrophotometer. The cellular viability, carried out to determine the toxicity of the product, is calculated according to the formula:
% viability=OD produced/OD cellular control×100
The cellular control is carried out without issue. A reference tensioactive SDS (Sodium Dodecyl Sulphate) at 1.5 mg/ml is equally tested as a cytotoxic control.
If the cellular viability is between 70 and 50%, the products are considered as slightly cytotoxic.
If it is lower than 50%, the products are considered as cytotoxic.

[2] = system: corneas from abattoir beef carcasses
Excerpt: The BCOP test (bovine corneal opacity and permeability) makes it possible to evaluate the ocular irritation indice in vitro on corneas from abattoir beef carcasses. It measures two parameter of ocular irritation: the opacity and cellular permeability.
The opacity is defined as the difference of light transmission between a treated cornea and a control cornea. The permeability is equal to the optical density (OD) measured in a spectrophotometer at 490 nm.
The irritation score in vitro is established by using the following formula:
Score in vitro=opacity value+[…] the value of OD.
The objective values are combined and the scores of ocular irritation in vitro are compared to an irritation scale previously established. In general, the irritant potential is classed in three categories weak (0 to 25), moderate (25.1 to 55) and severe (55.1 and +).

[3] = SDS at 1-5 mg/ml, MTT, skin model

CCCCO[C@H]1O[C@H](COC(=O)C(C)O)[C@@H](O)[C@H](O)[C@H]1O (stereo partly drawn) [Lactate of α-butylglucoside, Lactic Ester of α-Butylglucoside]
% viability in comparison to the control [1]: 74.5% | Average (optical density at 540 nm) [1]: 0.255 | OD trial 1 (optical density at 540 nm) [1]: 0.242 | OD trial 2 (optical density at 540 nm) [1]: 0.265 | cytotoxicity class [1]: not cytotoxic | irritancy compared with lactic acid [1]: less irritant than lactic acid

CC(O)C(=O)O (stereo not shown) [Lactic acid, lactic acid]
% viability in comparison to the control ([1]; 5 %): 16% | Average (optical density at 540 nm) ([1]; 5 %): 0.055 | OD trial 1 (optical density at 540 nm) ([1]; 5 %): 0.044 | OD trial 2 (optical density at 540 nm) ([1]; 5 %): 0.066 | ocular irritation category [2]: moderately irritant

CCCCCCCCCCCCOS(=O)(=O)[O-].[Na+] [SDS, Sodium Dodecyl Sulphate]
% viability in comparison to the control [1, 3]: 14.8% | Average (optical density at 540 nm) [1, 3]: 0.051 | OD trial 1 (optical density at 540 nm) [1, 3]: 0.046 | OD trial 2 (optical density at 540 nm) [1, 3]: 0.056

CCCCO[C@H]1O[C@H](CO)[C@@H](O)[C@H](O)[C@H]1O [α-butylglucoside, n-butyl-α-D-monoglucopyranose]
ocular irritation category [2]: non-irritant | miscibility with saturated and unsaturated acids (in a melted medium): miscible in all proportions | Solubility at 20° C. (solvent: Acetonitrile): 50 % (p/p) | Solubility at 20° C. (solvent: Dichloromethane): 70 % (p/p) | Solubility at 20° C. (solvent: Dioxane): 70 % (p/p) | Solubility at 20° C. (solvent: Ethanol (95/96%)): 70 % (p/p) | Solubility at 20° C. (solvent: Glycerol): 70 % (p/p) | Solubility at 20° C. (solvent: Polyethylene glycol 200): 70 % (p/p) | Solubility at 20° C. (solvent: Propylene glycol): 70 % (p/p) | Solubility at 20° C. (solvent: Water): 60 % (p/p)
